Among the data in patent US12673946B2, “Pyrimidin-4(3H)-one derivatives as TRPV4 antagonists” (RaQualia Pharma Inc., priority 2020, dated 2026) are IC50 values, retold here.

Each structure is given as a SMILES string. Some results are limits rather than exact numbers.

In this test the target is T1, human TRPV4 (Homo sapiens, UniProt Q9HBA0).
T1 construct: host or cells: tetracycline-inducible Flp-In T-REx 293 cells
Briefly: Hypotonicity-induced Ca2+ influx (Fluo-4, FDSS). The test is classed as cell-based. Here is the method: Hypotonicity-Induced Ca^2+ Influx
TRPV4 channel activation/opening results in an influx of Ca^2+ (Liedtke, W. et al., 2000 (NPL 1)). The resulting changes in intracellular calcium are monitored using a Ca^2+ sensitive fluorescent dye Fluo-4 (Invitrogen). Dye loaded cells are treated with the test compounds for 5 minutes prior to the addition of a hypotonic solution and the inhibition of the hypotonicity-induced activation is recorded.
Forty microL of tetracycline-inducible Flp-In T-REx 293 cells (Invitrogen) stably expressing human TRPV4 are seeded onto the poly-D-lysine coated 384-well plate (Corning) at a density of 10,000 cells per well. The following day, TRPV4 expression is induced by adding 0.5 microg/mL tetracycline for 20-24 hours. On the day of the experiment, the media is removed and replaced with 40 microL of dye loading buffer [1 microM Fluo-4 AM (Invitrogen), 0.01% Pluronic F-127, and 20 mM HEPES in Hanks' balanced salt solutions (HBSS; Invitrogen)] and then the cells are incubated for 60 minutes at 25° C. Dye is then removed and replaced with 20 microL of assay buffer (20 mM HEPES in HBSS). Five minutes prior to the fluorescence measurement, 10 microL of test compound is added to the cells. Using the FDSS instrument (Hamamatsu Photonics), 30 microL of hypotonic solution (90 mM D-mannitol and 1.26 mM CaCl2 in ultrapure water) is added 30 seconds after the start of measurement. The calcium flux signal is recorded for a total of 4.5 minutes.

The mark [1] stands for this setting: Flp-In T-REx 293 cells expressing human TRPV4, examples listed under heading 'Human IC50<50 nM'.
The mark [2] stands for this setting: Flp-In T-REx 293 cells stably expressing human TRPV4, compounds listed by potency bin (<10 nM Tables 96-1/96-2, <3 nM Table 97).

T1 sequence (Q9HBA0 whole entry): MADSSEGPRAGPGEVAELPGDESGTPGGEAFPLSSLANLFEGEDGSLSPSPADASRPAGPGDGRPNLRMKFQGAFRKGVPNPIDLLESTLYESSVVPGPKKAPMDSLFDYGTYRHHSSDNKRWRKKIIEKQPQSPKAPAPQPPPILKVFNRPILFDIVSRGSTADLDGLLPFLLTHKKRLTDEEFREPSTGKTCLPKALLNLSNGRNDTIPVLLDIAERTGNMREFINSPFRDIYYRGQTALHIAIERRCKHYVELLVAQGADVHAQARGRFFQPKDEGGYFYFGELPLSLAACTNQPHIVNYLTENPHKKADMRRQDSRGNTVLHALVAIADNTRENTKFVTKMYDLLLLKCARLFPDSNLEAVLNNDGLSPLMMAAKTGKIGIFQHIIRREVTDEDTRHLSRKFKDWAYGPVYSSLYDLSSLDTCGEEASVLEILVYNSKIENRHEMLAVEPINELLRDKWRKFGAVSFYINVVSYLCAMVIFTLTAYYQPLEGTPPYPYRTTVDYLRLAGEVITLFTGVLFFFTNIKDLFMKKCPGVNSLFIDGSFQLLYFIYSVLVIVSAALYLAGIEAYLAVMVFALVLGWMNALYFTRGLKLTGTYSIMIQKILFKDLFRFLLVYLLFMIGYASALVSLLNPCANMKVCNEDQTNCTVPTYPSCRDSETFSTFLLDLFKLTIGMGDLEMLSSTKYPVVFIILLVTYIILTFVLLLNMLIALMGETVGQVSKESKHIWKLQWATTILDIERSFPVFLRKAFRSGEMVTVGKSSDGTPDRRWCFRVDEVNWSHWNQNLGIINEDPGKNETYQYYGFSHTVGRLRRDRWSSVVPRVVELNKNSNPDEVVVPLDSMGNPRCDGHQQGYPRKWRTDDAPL

Consider `O=C(C(O)c1cccc(Cl)c1F)N1CCc2nc(C3(c4ccccc4)CC3)[nH]c(=O)c2C1` (single isomer, unassigned) [3-69], for which, under setting [1], the IC50 (in general, the point on the concentration scale where inhibition reaches its midpoint) was under 0.05 µM.
Consider `O=C(C(F)c1ccccc1)N1CCc2nc(C3(c4ccccc4)CC3)[nH]c(=O)c2C1` (stereo not drawn) [2-21], for which the IC50 under setting [1] is under 0.05 µM.
For the compound `O=C([C@H](O)c1cccc(Cl)c1)N1CCc2nc(C3(c4ccccc4)CC3)[nH]c(=O)c2C1` [2-33, (R)-6-(2-(3-chlorophenyl)-2-hydroxyacetyl)-2-(1-phenylcyclopropyl)-5,6,7,8-tetrahydropyrido[4,3-d]pyrimidin-4(3H)-one], the IC50 under setting [1] was under 0.05 µM.
With `O=C([C@H](O)c1cccc(F)c1F)N1CCc2nc(C3(c4ccccc4)CC3)[nH]c(=O)c2C1` [2-34, (R)-(−)-6-(2-(2,3-difluorophenyl)-2-hydroxyacetyl)-2-(1-phenylcyclopropyl)-5,6,7,8-tetrahydropyrido[4,3-d]pyrimidin-4(3H)-one], the IC50 under setting [1] is under 0.05 µM.
With `O=C([C@H](O)c1cccc(Cl)c1)N1CCc2nc(C3(c4ccc(Cl)cc4)CC3)[nH]c(=O)c2C1` [3-21], under setting [1], the IC50 is under 0.05 µM.
With `O=C([C@H](O)c1cccc(Cl)c1)N1CCc2nc(C3(c4ccc(F)cc4)CC3)[nH]c(=O)c2C1` [3-22], under setting [1], the IC50 is under 0.05 µM.
The same measure, in the same setting: for `O=C(C(O)c1cccc(F)c1F)N1CCc2nc(C3(c4cccc(F)c4)CC3)[nH]c(=O)c2C1` (stereo not drawn) [3-28] the value was under 0.05 µM.
With `O=C([C@H](O)c1cccc(Cl)c1)N1CCc2nc(C3(c4cccc(F)c4)CC3)[nH]c(=O)c2C1` [3-31], under setting [1], the IC50 is under 0.05 µM.
Still for that read-out and setting: the value for `O=C([C@H](O)c1cccc(F)c1F)N1CCc2nc(C3(c4cccc(Cl)c4)CC3)[nH]c(=O)c2C1` [3-48] was under 0.05 µM; that for `O=C([C@H](O)c1cccc(Cl)c1)N1CCc2nc(C3(c4cccc(Cl)c4)CC3)[nH]c(=O)c2C1` [3-50] was under 0.05 µM.
The same measure, in the same setting: the value for `O=C([C@H](O)c1cccc(Cl)c1)N1CCc2nc(C3(c4cc(F)cc(F)c4)CC3)[nH]c(=O)c2C1` [3-58] was under 0.05 µM; that for `O=C(C(O)c1cc(Cl)cc(Cl)c1)N1CCc2nc(C3(c4ccccc4)CC3)[nH]c(=O)c2C1` (stereo not drawn) [3-62] was under 0.05 µM; that for `O=C(C(O)c1cccc(C(F)(F)F)c1)N1CCc2nc(C3(c4ccccc4)CC3)[nH]c(=O)c2C1` (stereo not drawn) [3-66] was under 0.05 µM.
In the case of `O=C(C(O)c1cccc(C(F)(F)F)c1)N1CCc2nc(C3(c4ccc(F)cc4)CC3)[nH]c(=O)c2C1` (stereo not drawn) [3-67], the IC50 under setting [1] is under 0.05 µM.
Under setting [1], `O=C([C@H](O)c1cccc(C(F)(F)F)c1)N1CCc2nc(C3(c4ccccc4)CC3)[nH]c(=O)c2C1` [3-71] returned an IC50 of under 0.05 µM.
Still for that read-out and setting: for `O=C([C@H](O)c1cccc(C(F)(F)F)c1)N1CCc2nc(C3(c4cccc(Cl)c4)CC3)[nH]c(=O)c2C1` [3-72] the value was under 0.05 µM; for `O=C([C@H](O)c1cccc(C(F)(F)F)c1)N1CCc2nc(C3(c4cccc(F)c4)CC3)[nH]c(=O)c2C1` [3-73], under 0.05 µM.
On to `O=C([C@H](O)c1cccc(Cl)c1)N1CCc2nc(C3(c4cccs4)CC3)[nH]c(=O)c2C1` [6-7], for which the IC50 under setting [1] is under 0.05 µM.
Turning to `O=C([C@H](O)c1cccc(Cl)c1)N1CCc2nc(C3(c4cc(Br)cs4)CC3)[nH]c(=O)c2C1` [6-18], under setting [1], the 50% inhibitory concentration (IC50) is under 0.05 µM.
As to `Cc1csc(C2(c3nc4c(c(=O)[nH]3)CN(C(=O)[C@H](O)c3cccc(Cl)c3)CC4)CC2)c1` [6-20], under setting [1], the IC50 was under 0.05 µM.
Regarding `O=C([C@H](O)c1cccc(Cl)c1)N1CCc2nc(C3(c4cc(-c5ccccc5)cs4)CC3)[nH]c(=O)c2C1` [6-21], under setting [1], the IC50 was under 0.05 µM.
For `O=C([C@H](O)c1cccc(F)c1F)N1CCCc2nc(C3(c4ccccc4)CC3)[nH]c(=O)c2C1` [10-6], the IC50 under setting [1] was under 0.05 µM.
Under setting [1], `O=C([C@H](O)c1cccc(Cl)c1)N1CCCc2nc(C3(c4ccccc4)CC3)[nH]c(=O)c2C1` [10-7] yielded an IC50 of under 0.05 µM.
In the case of `O=C(C(O)c1ccnc(N2CCCCCC2)c1)N1CCc2nc(C3(c4ccccc4)CC3)[nH]c(=O)c2C1` (stereo not drawn) [11-3], the IC50 under setting [1] was under 0.05 µM.
For the compound `O=C([C@H](O)c1cccc(Cl)c1)N1CCc2nc(C3(c4cccc(C5CCCCC5)c4)CC3)[nH]c(=O)c2C1` [14-1], the IC50 is, setting by setting: under setting [1], under 0.05 µM; under setting [2], under 0.003 µM.
Taken in the same sequence, the figures for `O=C([C@H](O)c1cccc(C(F)(F)F)c1)N1CCc2nc(C3(c4cccc(Oc5ccccc5)c4)CC3)[nH]c(=O)c2C1` [14-2] were under 0.05 µM and under 0.01 µM.
The compound `O=C(C(O)c1cccc(-c2cnc3ccccc3c2)c1)N1CCc2nc(C3(c4cccc(Cl)c4)CC3)[nH]c(=O)c2C1` (stereo not drawn) [14-3] showed an IC50 under setting [1] of under 0.05 µM and a 50% inhibitory concentration (IC50) under setting [2] of under 0.01 µM.
Taken in the same sequence, the figures for `O=C([C@H](O)c1cccc(Cl)c1)N1CCc2nc(C3(c4cccc(Oc5ccccc5)c4)CC3)[nH]c(=O)c2C1` [14-4] were under 0.05 µM and under 0.01 µM.
In the same order, the values of `O=C(C(O)c1cccc(-c2cccc(OC(F)(F)F)c2)c1)N1CCc2nc(C3(c4cccc(Cl)c4)CC3)[nH]c(=O)c2C1` (stereo not drawn) [14-5] are under 0.05 µM and under 0.01 µM.
In the same order, the values of `O=C(C(O)c1cccc(-c2cccc(C(F)(F)F)c2)c1)N1CCc2nc(C3(c4cccc(F)c4)CC3)[nH]c(=O)c2C1` (stereo not drawn) [14-6] are under 0.05 µM and under 0.01 µM.
In the case of `O=C(C(O)c1cccc(-c2cccc(OC(F)(F)F)c2)c1)N1CCc2nc(C3(c4cccc(F)c4)CC3)[nH]c(=O)c2C1` (stereo not drawn) [14-7], the IC50 by setting is: under setting [1], under 0.05 µM; under setting [2], under 0.01 µM.
With `O=C(C(O)c1cccc(-c2cccc(C(F)(F)F)c2)c1)N1CCc2nc(C3(c4cccc(Cl)c4)CC3)[nH]c(=O)c2C1` (stereo not drawn) [14-8], the IC50 is under 0.05 µM under setting [1] and under 0.01 µM under setting [2].
As to `O=C(C(O)c1cccc(-c2ccc(Cl)cc2)c1)N1CCc2nc(C3(c4cccc(Cl)c4)CC3)[nH]c(=O)c2C1` (stereo not drawn) [14-9], the IC50 under setting [1] is under 0.05 µM and the IC50 under setting [2] is under 0.01 µM.
On to `O=C([C@H](O)c1cccc(Cl)c1)N1CCc2nc(C3(c4cccc(-c5ccccc5)c4)CC3)[nH]c(=O)c2C1` [14-10], for which the IC50 under setting [1] was under 0.05 µM and the IC50 under setting [2] is under 0.01 µM.
In the same order, the values of `CC(C)(C)c1cccc(C(O)C(=O)N2CCc3nc(C4(c5cccc(Cl)c5)CC4)[nH]c(=O)c3C2)c1` (stereo not drawn) [14-11] are under 0.05 µM and under 0.01 µM.
For the compound `O=C(C(O)c1cccc(-c2cccc(F)c2)c1)N1CCc2nc(C3(c4cccc(Cl)c4)CC3)[nH]c(=O)c2C1` (stereo not drawn) [14-12], the IC50 runs as follows: under setting [1], under 0.05 µM; under setting [2], under 0.01 µM.
In the same order, the values of `CC(C)c1cccc(C2(c3nc4c(c(=O)[nH]3)CN(C(=O)[C@H](O)c3cccc(Cl)c3)CC4)CC2)c1` [14-13] are under 0.05 µM and under 0.01 µM.
Under setting [1], `O=C(C(O)c1cccc(Oc2cccc(C(F)(F)F)c2)c1)N1CCc2nc(C3(c4ccccc4)CC3)[nH]c(=O)c2C1` (stereo not drawn) [14-14] returned an IC50 of under 0.05 µM.
Same read-out and setting: for `O=C(C(O)c1cccc(C2CC2)c1)N1CCc2nc(C3(c4cccc(Cl)c4)CC3)[nH]c(=O)c2C1` (stereo not drawn) [14-15] the value was under 0.05 µM; for `CC(C)c1cccc(C(O)C(=O)N2CCc3nc(C4(c5cccc(Cl)c5)CC4)[nH]c(=O)c3C2)c1` (stereo not drawn) [14-16], under 0.05 µM; for `O=C(C(O)c1cccc(S(F)(F)(F)(F)F)c1)N1CCc2nc(C3(c4cccc(Cl)c4)CC3)[nH]c(=O)c2C1` (stereo not drawn) [14-17], under 0.05 µM.
For `O=C(C(O)c1cccc(SC(F)(F)F)c1)N1CCc2nc(C3(c4cccc(Cl)c4)CC3)[nH]c(=O)c2C1` (stereo not drawn) [14-18], the IC50 under setting [1] was under 0.05 µM.
Same read-out and setting: the value for `O=C(C(O)c1cccc(-c2cccc(F)c2)c1)N1CCc2nc(C3(c4cccc(F)c4)CC3)[nH]c(=O)c2C1` (stereo not drawn) [14-19] was under 0.05 µM; that for `O=C(C(O)c1cccc(C(F)(F)F)c1F)N1CCc2nc(C3(c4cccc(Cl)c4)CC3)[nH]c(=O)c2C1` (stereo not drawn) [14-20] was under 0.05 µM.
Regarding `O=C(C(O)c1cccc(Oc2ccccc2)c1)N1CCc2nc(C3(c4cccc(Cl)c4)CC3)[nH]c(=O)c2C1` (stereo not drawn) [14-21], the IC50 under setting [1] was under 0.05 µM.
In turn, `CC(C)(C)c1cccc(C(O)C(=O)N2CCc3nc(C4(c5cccc(F)c5)CC4)[nH]c(=O)c3C2)c1` (stereo not drawn) [14-22] showed an IC50 under setting [1] of under 0.05 µM.
Take `O=C(C(O)c1cccc(S(F)(F)(F)(F)F)c1)N1CCc2nc(C3(c4cccc(F)c4)CC3)[nH]c(=O)c2C1` (stereo not drawn) [14-23]: the IC50 under setting [1] is under 0.05 µM.
Take `O=C(C(O)c1cccc(-c2ccc(Cl)cc2)c1)N1CCc2nc(C3(c4cccc(F)c4)CC3)[nH]c(=O)c2C1` (stereo not drawn) [14-24]: under setting [1], the IC50 was under 0.05 µM.
The same measure, in the same setting: the value for `O=C(C(O)c1cccc(SC(F)(F)F)c1)N1CCc2nc(C3(c4ccccc4)CC3)[nH]c(=O)c2C1` (stereo not drawn) [14-25] was under 0.05 µM; that for `O=C([C@H](O)c1cccc(Cl)c1)N1CCc2nc(C3(c4cccc(Br)c4)CC3)[nH]c(=O)c2C1` [14-26] was under 0.05 µM.
In turn, `O=C(C(O)c1cccc(SC(F)(F)F)c1)N1CCc2nc(C3(c4cccc(F)c4)CC3)[nH]c(=O)c2C1` (stereo not drawn) [14-27] returned an IC50 under setting [1] of under 0.05 µM.
`O=C(C(O)c1cccc(Cl)c1F)N1CCc2nc(C3(c4cccc(Cl)c4)CC3)[nH]c(=O)c2C1` (stereo not drawn) [14-28] gave an IC50 under setting [1] of under 0.05 µM.
`O=C(C(O)c1cccc(C(F)(F)F)c1F)N1CCc2nc(C3(c4cccc(F)c4)CC3)[nH]c(=O)c2C1` (stereo not drawn) [14-29] had an IC50 under setting [1] of under 0.05 µM.
